Assay results published in patent EP4534086A1, “TREATMENT OF LEUKODYSTROPHY” (priority 2023, dated 2025).

Assays:
[1] = molecular target: T1, Sig-1R (Rattus norvegicus, UniProt Q9R0C9); details: rats; cited from earlier work
T1 construct: host or cells: living rats

[2] = tested on: Vimentin, Iba1 and IL-6 / MBP and MOG; assay: Gene-expression signature from RT-qPCR of cerebellum (inflammation/myelin ratio); format: in vivo, mice; details: donepezil vs vehicle
Method: Total RNAs were isolated from cerebellum tissues using the Nucleospin® total RNA isolation kit (Macherey-Nagel, Germany). The concentrations of isolated RNA from each sample were assessed using a NanoDrop 2000 Spectrophotometer (Thermo Scientific, USA). 10 µL of the isolated RNA were equalized to 20 microlitres (µL) using RNase-free water. Then, the cDNA was synthesized by reverse transcription using the High-Capacity cDNA manufacture kit (Applied Biosystems™, Thermo Fisher Scientific, USA). Equal volumes of the isolated RNA and cDNA mastermix were mixed, centrifuged, and loaded in the thermal cycler (T100™, BIO-RAD, USA). The cDNA was diluted 1:2 with RNase-free water and stored at -20 deg.°C prior to qPCR analysis. The manufactured cDNA was amplified using multi-target qPCR. cDNA and PCR mastermix, containing the target and endogenous primers, as well as the Taqman mastermix, were loaded on a 96-well PCR fast plate (Thermo Fisher Scientific, USA) in an ice block. […] Gene expression data were analyzed using the Livak and Schmittgen (2001) ΔΔCt method, to produce a relative quantity (RQ) value of target gene expression relative to GAPDH expression as per formula in equations 1-3: (1) ΔCt=Ct target- Ct endogenous; (2) ΔΔCt= ΔCt sample- ΔCt control sample; (3) RQ=2-ΔΔCt.
Data normality was assessed using the Shapiro-Wilk test. […]

T1 sequence (Q9R0C9 whole entry): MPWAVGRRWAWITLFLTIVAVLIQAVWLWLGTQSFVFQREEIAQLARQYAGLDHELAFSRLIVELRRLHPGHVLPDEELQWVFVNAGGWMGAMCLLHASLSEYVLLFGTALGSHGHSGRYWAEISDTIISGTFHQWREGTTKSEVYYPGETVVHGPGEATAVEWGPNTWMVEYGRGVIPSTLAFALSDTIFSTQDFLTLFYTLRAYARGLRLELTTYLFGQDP

## COc1cc2c(cc1OC)C(=O)C(CC1CCN(Cc3ccccc3)CC1)C2 (racemic) [donepezil, (RS)-2-[(1-Benzyl-4-piperidyl)methyl]-5,6-dimethoxy-2,3-dihydroinden-1-one]
[1]
  dose corresponding to EC50 for receptor occupancy: 1.07 mg/kg
[2]; twitcher mice, p=0.0016
  gene-expression-signature (Vimentin, Iba1 and IL-6 divided by MBP and MOG): significant decrease
[2]; wild-type mice, p=0.2495
  gene-expression-signature (Vimentin, Iba1 and IL-6 divided by MBP and MOG): no significant difference
